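Cultured in 96-well plates, cells were exposed to test compound for 48 hours across five concentrations. Abbreviation: GI50, concentration required for 50% inhibition of growth. Definition used: TGI = concentration required for complete inhibition of growth.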
Tests used:
Assay in all cases: NCI-60 cell line screen, 48 h
T-47D breast = test system: T-47D breast
NCI/ADR-RES ovarian = test system: NCI/ADR-RES ovarian
MDA-MB-435 = test system: MDA-MB-435
MCF7 breast = test system: MCF7 breast
HS 578T breast = test system: HS 578T breast
BT-549 breast = test system: BT-549 breast
PC-3 prostate = test system: PC-3 prostate
HOP-18 NSCLC = test system: HOP-18 NSCLC
M19-MEL melanoma = test system: M19-MEL melanoma
KM20L2 colon = test system: KM20L2 colon
LXFL 529 NSCLC = test system: LXFL 529 NSCLC
DLD-1 colon = test system: DLD-1 colon
SNB-78 CNS = test system: SNB-78 CNS

| SMILES | GI50 (T-47D breast) | TGI (T-47D breast) | GI50 (NCI/ADR-RES ovarian) | TGI (NCI/ADR-RES ovarian) | GI50 (MDA-MB-435) | TGI (MDA-MB-435) | GI50 (MCF7 breast) | TGI (MCF7 breast) | GI50 (HS 578T breast) | TGI (HS 578T breast) | GI50 (BT-549 breast) | TGI (BT-549 breast) | GI50 (PC-3 prostate) | TGI (PC-3 prostate) | TGI (HOP-18 NSCLC) [µM] | TGI (M19-MEL melanoma) [µM] | TGI (KM20L2 colon) [µM] | TGI (LXFL 529 NSCLC) [µM] | TGI (DLD-1 colon) [µM] | TGI (SNB-78 CNS) [µM] |
| --- | --- | --- | --- | --- | --- | --- | --- | --- | --- | --- | --- | --- | --- | --- | --- | --- | --- | --- | --- | --- |
| O=C(CN1CCN(c2ccccn2)CC1)Nc1ccc(Cl)cc1C(=O)c1ccccc1Cl | 3.89 µM | > 100 µM | 86.8 µM | > 100 µM | 28.4 µM | > 100 µM | 9.26 µM | > 100 µM | > 100 µM | > 100 µM | 81.4 µM | > 100 µM | 6 µM | > 100 µM | – | – | – | – | – | – |
| COc1ccc(OC)c(/C=C/C(=O)c2ccc3cc(OC)ccc3c2)c1 | 0.811 µM | 3.33 µM | – | > 13.8 µM | 0.641 µM | 1.88 µM | 11.4 µM | > 50 µM | > 33.3 µM | > 50 µM | 7.01 µM | > 37.4 µM | 6.71 µM | > 50 µM | – | – | – | – | – | – |
| COC(=O)[C@]1(C)CC[C@]2(C)CC[C@]3(C)C(=CC(=O)[C@@H]4[C@@]5(C)CCC(=O)NC(C)(C)[C@@H]5CC[C@]43C)[C@@H]2C1 | 9.97 µM | > 100 µM | 20.2 µM | 53.6 µM | 26.6 µM | > 100 µM | 13.3 µM | 43.5 µM | 32.7 µM | > 100 µM | 12.8 µM | 28 µM | 4.69 µM | 21.3 µM | – | – | – | – | – | – |
| O=C1CC2OCC=C3CN4CCC56c7ccccc7N1C5C2C3CC46 (stereo not given) (tested in a mixture with another compound) | > 50 µg/mL | > 50 µg/mL | > 50 µg/mL | > 50 µg/mL | > 50 µg/mL | > 50 µg/mL | > 50 µg/mL | > 50 µg/mL | > 50 µg/mL | > 50 µg/mL | > 50 µg/mL | > 50 µg/mL | > 50 µg/mL | > 50 µg/mL | – | – | – | – | – | – |
| Cc1ccc(SSCCCCS(=O)O)cc1 | – | – | – | – | – | – | – | – | – | – | – | – | – | – | > 100 | 64.5 | 46.9 | 25.5 | > 100 | > 100 |
| COc1c(OC2OC(CO)C(O)C(O)C2O)cc2c(c1OC)-c1ccc(OC)c(=O)cc1[C@@H](NC(C)=O)CC2 (stereo not given in full) | – | – | – | – | – | – | – | – | – | – | – | – | – | – | > 100 | > 100 | > 100 | > 100 | > 100 | > 100 |
| NS(=O)(=O)c1ccc(N=Nc2c(=O)[nH]c3ccc4[nH]cccc4c23)cc1 | 0.48 µM | 1.98 µM | > 15.8 µM | > 25 µM | 0.553 µM | > 25 µM | 0.129 µM | > 25 µM | 0.575 µM | > 6.85 µM | 0.498 µM | 1.72 µM | 0.583 µM | > 25 µM | – | – | – | – | – | – |
| CCc1cccc(CC)c1NC(=O)C1=CNC(C)=C(C(=O)Nc2c(CC)cccc2CC)C1c1ccc(O)c(OC)c1 (stereo not given) | – | – | – | – | – | – | – | – | – | – | – | – | – | – | – | > 100 | > 100 | > 100 | > 100 | > 100 |
| Cc1ccccc1NC(=O)CC(=O)n1nc(-c2ccccc2)c(N=Nc2ccc([N+](=O)[O-])cc2)c1-c1ccccc1 | – | – | – | – | – | – | – | – | – | – | – | – | – | – | 87.8 | – | 32.8 | > 100 | > 100 | > 100 |
| CC(=O)OC1(C#N)CC2OC1C1NC21 (stereo not given) | – | – | – | – | – | – | – | – | – | – | – | – | – | – | – | > 100 | > 100 | > 100 | > 100 | > 100 |
| CCCCCCCCC(=O)NCCN(CCN)C(=O)CCCCCCCC | – | 32.9 µM | – | 31.1 µM | – | 29.7 µM | – | 17.5 µM | – | 24 µM | – | 22.8 µM | – | 25 µM | 31 | 10.6 | 9.55 | 7.89 | 10.4 | 23.4 |
| CC(=O)N1CCN(C=S)CC1 | – | – | – | – | – | – | – | – | – | – | – | – | – | – | – | > 100 | > 100 | > 100 | > 100 | > 100 |
| CC(C)Cn1cnc2c(SCc3ccccn3)nc(N)nc21 | – | > 100 µM | – | > 100 µM | – | > 100 µM | – | > 100 µM | – | > 100 µM | – | > 100 µM | – | > 100 µM | – | – | – | – | – | – |
| Nc1nc(N)c(-c2ccc(Cl)cc2)c(/C=C/c2ccc([N+](=O)[O-])cc2)n1 | 6.19 µM | > 100 µM | 7.99 µM | > 100 µM | 4.44 µM | > 100 µM | 3.16 µM | > 100 µM | 9.97 µM | > 100 µM | 13.1 µM | 90.3 µM | 3.9 µM | > 100 µM | – | – | – | – | – | – |
| OCC(O)C(OC1OC(CO)C(O)C(O)C1O)c1nn(-c2ccc(Cl)cc2)c2nc3cc(Cl)ccc3nc12 (stereo not given) | – | – | – | – | – | – | – | – | – | – | – | – | – | – | – | > 100 | > 100 | > 100 | > 100 | > 100 |
| O=C(OCc1ccccc1)c1ccccc1-c1c2ccc(=O)cc-2oc2cc(OCc3ccccc3)ccc12 | – | – | – | – | – | – | – | – | – | – | – | – | – | – | – | > 100 | > 100 | > 100 | 39.1 | > 100 |
